Earlier results, collected in patent EP0292255A2, “Inhibitor of ribonucleotide reductase” (Merck & Co., Inc., priority 1987, dated 1988).
Ends that are not written are not given here.

System: ribonucleotide reductase enzyme of herpes simplex virus
Settings: result in words, from Nature 321:439-441 and 441-443 (1986)

Row | Substance | inhibition of the activity of the ribonucleotide reductase enzyme of herpes simplex virus in vitro
1 | Tyr Ala Gly Ala Val Val Asn Asp Leu (YAGAVVNDL; printed: Tyr Ala Gly Ala Val Val Asn Asp Leu) [nonapeptide disclosed by Dutia et al. and Cohen et al] | inhibited
2 | YGAVVNDL [8-desalanine homolog of the nonapeptide, disclosed by Dutia et al] | inhibited
